Assay results as given in patent US9517265B2, “Methods for the prevention and/or treatment of memory impairment” (The Governing Council of the University of Toronto, priority 2010, dated 2016).
“Also recorded” adds a separate entry of the source. Like-named read-outs stand apart in the source and are kept apart here.

Experiments:
[1] = in vivo; cited from earlier work
postsynaptic GABAARs = experiment: Whole-cell currents evoked by exogenous GABA (10 μM) in cultured hippocampal neurons; type: cell-based, mice
α5GABAARs [2] = target: T1, α5GABAARs (Mus musculus, UniProt P22723+Q8BHJ7); experiment: Tonic inhibitory current, whole cell voltage-clamp in cultured hippocampal neurons; type: cell-based, mice; design: endogenous in cells; host or cells: primary embryonic mouse hippocampal neurons, alone or co-cultured with cortical microglia; conditions: for effect on the tonic current (in words): cultured hippocampal neurons; for amplitude of the tonic current: TNF-α 100 ng/ml, n=10, IL-6 10 ng/ml, n=5
T1 sequence (Q8BHJ7 32-463 limits assumed): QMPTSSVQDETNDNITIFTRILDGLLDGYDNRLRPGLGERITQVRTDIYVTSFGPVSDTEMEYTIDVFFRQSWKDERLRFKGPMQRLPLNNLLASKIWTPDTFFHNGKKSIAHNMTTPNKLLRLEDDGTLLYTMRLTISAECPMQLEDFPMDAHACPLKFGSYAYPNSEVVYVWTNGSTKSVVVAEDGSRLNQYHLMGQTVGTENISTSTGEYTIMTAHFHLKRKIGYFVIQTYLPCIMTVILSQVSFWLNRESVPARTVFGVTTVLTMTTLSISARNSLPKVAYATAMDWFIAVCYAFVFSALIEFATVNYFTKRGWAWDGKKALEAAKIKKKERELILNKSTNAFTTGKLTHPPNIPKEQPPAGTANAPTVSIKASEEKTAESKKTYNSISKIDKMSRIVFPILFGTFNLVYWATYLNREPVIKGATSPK
T1 sequence (P63080 26-473 partner): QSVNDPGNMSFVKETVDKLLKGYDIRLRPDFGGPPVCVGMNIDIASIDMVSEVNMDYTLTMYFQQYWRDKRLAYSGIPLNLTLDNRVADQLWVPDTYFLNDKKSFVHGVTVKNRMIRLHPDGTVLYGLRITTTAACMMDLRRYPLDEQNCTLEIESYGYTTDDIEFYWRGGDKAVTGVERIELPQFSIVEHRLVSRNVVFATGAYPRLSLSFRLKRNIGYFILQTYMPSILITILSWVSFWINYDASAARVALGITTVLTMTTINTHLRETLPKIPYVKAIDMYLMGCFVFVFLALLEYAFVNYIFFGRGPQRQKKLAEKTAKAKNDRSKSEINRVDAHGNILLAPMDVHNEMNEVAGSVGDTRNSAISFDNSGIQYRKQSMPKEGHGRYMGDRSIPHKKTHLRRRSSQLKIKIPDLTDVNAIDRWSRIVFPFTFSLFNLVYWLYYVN
T1 sequence (P22723 39-474): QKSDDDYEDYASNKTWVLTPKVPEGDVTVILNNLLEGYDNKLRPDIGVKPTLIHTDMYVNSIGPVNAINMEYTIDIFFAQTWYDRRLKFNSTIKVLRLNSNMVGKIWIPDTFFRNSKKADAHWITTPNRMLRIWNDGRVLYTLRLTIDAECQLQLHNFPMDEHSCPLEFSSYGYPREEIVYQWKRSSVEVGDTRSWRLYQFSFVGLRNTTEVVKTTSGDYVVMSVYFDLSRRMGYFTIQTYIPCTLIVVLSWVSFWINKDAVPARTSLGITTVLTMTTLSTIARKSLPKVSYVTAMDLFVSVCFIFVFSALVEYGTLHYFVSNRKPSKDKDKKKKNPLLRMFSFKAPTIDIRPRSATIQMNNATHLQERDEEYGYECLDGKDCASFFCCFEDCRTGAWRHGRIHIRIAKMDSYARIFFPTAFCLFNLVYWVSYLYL

α5GABAARs [3] = target: T2, α5GABAARs (Mus musculus, UniProt P22723+P63080+Q8BHJ7); conditions: cited from earlier work
T2 construct: host or cells: neurons (mIPSCs and tonic current recorded); preparation not described in this paragraph
T2 sequence (Q8BHJ7 32-463 limits assumed): as the sequence (Q8BHJ7 32-463 limits assumed) above
T2 sequence (P63080 26-473): as the sequence (P63080 26-473 partner) above
T2 sequence (P22723 39-474): as the sequence (P22723 39-474) above

synaptic GABAARs = experiment: Miniature inhibitory postsynaptic currents (mIPSCs) in cultured hippocampal neurons; type: cell-based, mice
[4] = rats; cited from earlier work
α5GABAARs [5] = target: T1, α5GABAARs; conditions: WT mice, etomidate or etomidate plus L-655,708 30 min prior to training; cited from earlier work
α5GABAA receptors [6] = target: α5GABAA receptors (Mus musculus, UniProt P22723+Q8BHJ7); conditions: for effect of the anesthetic on recognition memory, wild-type mice (in words): 24 h after anesthesia
Chain of α5GABAA receptors (Mus musculus, UniProt P22723+Q8BHJ7) (Q8BHJ7 32-463 limits assumed): as the sequence (Q8BHJ7 32-463 limits assumed) above
Chain of α5GABAA receptors (Mus musculus, UniProt P22723+Q8BHJ7) (P63080 26-473 partner): as the sequence (P63080 26-473 partner) above
Chain of α5GABAA receptors (Mus musculus, UniProt P22723+Q8BHJ7) (P22723 39-474): as the sequence (P22723 39-474) above

α5GABAA receptors [7] = target: T3, α5GABAA receptors (Homo sapiens, UniProt P18507+P31644); design: host or cells: human volunteers (brain in vivo); conditions: human volunteers, given before ethanol; cited from earlier work
T3 sequence (P31644 32-462): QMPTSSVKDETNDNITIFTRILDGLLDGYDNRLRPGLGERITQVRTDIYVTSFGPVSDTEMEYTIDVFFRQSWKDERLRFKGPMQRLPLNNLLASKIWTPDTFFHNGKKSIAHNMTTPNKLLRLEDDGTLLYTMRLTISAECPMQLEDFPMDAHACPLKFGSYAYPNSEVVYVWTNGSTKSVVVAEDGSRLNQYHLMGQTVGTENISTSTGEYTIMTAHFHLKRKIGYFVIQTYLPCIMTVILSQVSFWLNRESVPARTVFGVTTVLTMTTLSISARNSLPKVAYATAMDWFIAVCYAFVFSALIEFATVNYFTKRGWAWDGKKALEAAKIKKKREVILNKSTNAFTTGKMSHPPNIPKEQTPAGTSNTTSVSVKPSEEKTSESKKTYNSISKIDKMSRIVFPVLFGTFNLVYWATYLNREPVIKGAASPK
T3 sequence (P28472 26-473 partner): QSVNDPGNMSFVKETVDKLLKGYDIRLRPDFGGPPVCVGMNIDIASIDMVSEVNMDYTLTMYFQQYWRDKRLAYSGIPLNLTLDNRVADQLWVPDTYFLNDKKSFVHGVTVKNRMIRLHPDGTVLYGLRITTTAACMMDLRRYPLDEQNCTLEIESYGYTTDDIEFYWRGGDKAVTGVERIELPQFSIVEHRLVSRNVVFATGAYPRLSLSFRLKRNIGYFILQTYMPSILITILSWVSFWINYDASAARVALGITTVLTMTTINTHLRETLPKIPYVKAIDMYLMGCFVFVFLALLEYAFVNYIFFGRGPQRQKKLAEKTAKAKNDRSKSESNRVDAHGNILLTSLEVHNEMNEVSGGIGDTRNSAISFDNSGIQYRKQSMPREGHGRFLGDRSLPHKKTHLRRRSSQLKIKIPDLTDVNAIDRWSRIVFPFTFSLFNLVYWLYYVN
T3 sequence (P18507 40-467 limits assumed): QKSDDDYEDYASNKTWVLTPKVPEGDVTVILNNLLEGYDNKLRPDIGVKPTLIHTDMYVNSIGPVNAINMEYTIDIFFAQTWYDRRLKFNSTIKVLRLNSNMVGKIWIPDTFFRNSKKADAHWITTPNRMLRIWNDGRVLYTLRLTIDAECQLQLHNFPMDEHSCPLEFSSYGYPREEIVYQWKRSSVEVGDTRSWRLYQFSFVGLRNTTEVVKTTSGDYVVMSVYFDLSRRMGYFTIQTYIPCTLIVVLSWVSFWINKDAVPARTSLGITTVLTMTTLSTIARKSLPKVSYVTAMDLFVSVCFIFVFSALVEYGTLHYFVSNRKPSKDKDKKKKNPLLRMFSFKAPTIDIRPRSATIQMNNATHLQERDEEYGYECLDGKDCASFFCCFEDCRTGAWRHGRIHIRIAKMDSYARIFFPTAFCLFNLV

α5GABAARs [8] = target: T1, α5GABAARs; experiment: Long-term potentiation of field postsynaptic potentials in hippocampal slices; type: cell-based, mice; design: endogenous in cells; host or cells: primary embryonic mouse hippocampal neurons, alone or co-cultured with cortical microglia
Description: IL-1β could influence any of several molecular processes that regulate synaptic plasticity^50. The key question is whether α5GABAARs underlie the predominant effect of IL-1β on plasticity. Our working hypothesis is that IL-1β acts via α5GABAARs to inhibit LTP. […] After 3 hours, the mice were sacrificed and the hippocampi harvested. Extracellular field recordings were obtained with a recording electrode placed in the stratum radiatum of the CA1 subfield.
The long-term potentiation (LTP) of evoked field postsynaptic potentials (fPSPs) was studied using previously described methods^29. […] Baseline stimulation frequency was 0.05 Hz. LTP was induced in the slices with theta burst stimulation (TBS), which consisted of 10 stimulus trains at 5 Hz, with each train consisting of 4 pulses at 100 Hz. The fPSPs were monitored for 10 min before TBS and for 60 min after TBS.

[9] = pretreatment before tibial osteotomy; cited from earlier work
α5GABAARs [10] = experiment: Tonic current in hippocampal neuron-microglia co-culture; type: cell-based, mice; conditions: LPS 100 ng ml^−1 overnight; IL-1ra 250 ng ml^−1

In the case of CNC(=O)c1cc2c(cn1)[nH]c1ccccc12 [FG 7142], the “convulsant / anxiogenic properties (in words)” value [1] is given as “have epileptogenic and anxiogenic properties”.
In the case of O=c1cc(N2CCOCC2)oc2c(-c3ccccc3)cccc12 [LY294,002], the “effect on IL-1β inhibition of the GABA-evoked peak current (in words)” value (“effect on IL-1β inhibition” below) (postsynaptic GABAARs) is reported as “completely prevented IL-1β-dependent inhibition of the GABA-evoked peak current; also recorded: alone had no effect on the GABA-evoked peak responses” and the “effect on the tonic current (in words)” value (α5GABAARs [2]) is reported as “had no effect on the IL-1β-induced increase in tonic current”.
In the case of Cc1ncc2n1-c1ccc(Cl)cc1C(c1ccccc1F)=NC2 [Midazolam, midazolam], the “increase in charge transfer for the tonic current relative to that for mIPSCs” value (α5GABAARs [3]) is listed as 7-21 fold.
For CCc1nc(-c2ccc(OC)cc2)[nH]c1-c1ccncc1 [SB202,474], the “effect on the tonic current (in words)” value (α5GABAARs [2]) was “had no effect on the tonic current”.
With C[S+]([O-])c1ccc(-c2nc(-c3ccncc3)c(-c3ccc(F)cc3)[nH]2)cc1 (stereo not shown) [SB203,580] the “effect on IL-1β inhibition” value (postsynaptic GABAARs) was “had no effect on inhibition of the GABA-evoked peak current by IL-1β”, the tonic current density (α5GABAARs [2]; IL-1β 20 ng ml^−1 20 min with or without SB203,580 20 μM 30 min) was 1.0±0.1 pA pF^−1 and the “effect on the tonic current (in words)” value (α5GABAARs [2]) was “completely blocked the IL-1β-induced increase in the tonic current”. The “effect on mIPSCs (in words)” value (synaptic GABAARs) was “did not modify IL-1β inhibition of miniature IPSCs”.
In the case of FC(F)OC(F)C(F)(F)F (stereo not shown) [desflurane], the “threshold concentration that impaired memory performance during fear conditioning” value [4] is given as 0.44%.
For CCOC(=O)c1cncn1[C@H](C)c1ccccc1 [etomidate], the “effect on the tonic current (in words)” value (α5GABAARs [2]) is given as “selectively potentiate the tonic current; also recorded: increased the amplitude of the tonic current; also recorded: produced a supra-additive increase in the tonic current” and the “contextual fear memory, freezing score (in words)” value (α5GABAARs [5]) is given as “reduced the freezing score”.
For COc1ccc(-c2ccc(=N)n(CCCC(=O)O)n2)cc1 [gabazine], the “effect on the tonic current (in words)” value (α5GABAARs [2]) was “selectively inhibits the synaptic but not tonic current”.
In the case of FC(F)(F)C(Cl)Br (stereo not shown) [halothane], the “threshold concentration that impaired memory performance during fear conditioning” value [4] is given as 0.3%.
For CC(C)c1cccc(C(C)C)c1O [propofol], the “increase in charge transfer for the tonic current relative to that for mIPSCs” value (α5GABAARs [3]) is given as 6-33 fold.
In the case of FCOC(C(F)(F)F)C(F)(F)F [sevoflurane], the “effect of the anesthetic on recognition memory, wild-type mice (in words)” value (α5GABAA receptors [6]) is reported as “did not learn the task”, the “effect of the anesthetic on recognition memory, wild-type mice (in words)” value (α5GABAA receptors [6]; listed as Sevoflurane) is reported as “caused memory deficits 24 h after anesthesia” and the “exploratory behavior during the training phase” value (α5GABAA receptors [6]; 24 h after sevoflurane) is reported as 23.45 ± 3.88 s. The “time with familiar object” value (α5GABAA receptors [6]; 24 h after sevoflurane) was 13.13±1.95, the “time with novel object” value (α5GABAA receptors [6]; 24 h after sevoflurane) was 15.41±2.25 and the “discrimination ratio, short-term memory” value (α5GABAA receptors [6]; 24 h after sevoflurane 2.3% 1 h) was 0.53±0.03. For the same compound, the “threshold concentration that impaired memory performance during fear conditioning” value [4] was 0.3%.
For Cc1cc(-c2nnc3c4ccccc4c(OCc4cn(C)nn4)nn23)no1 [α5IA], the “ethanol-induced memory impairment (in words)” value (α5GABAA receptors [7]) is given as “reversed memory impairment for word-list learning after the ingestion of ethanol; also recorded: attenuated ethanol-induced impairment of word recall”.
For “IL-1ra: naturally occurring IL-1 receptor antagonist that blocks the type 1 IL-1 receptor”, the “effect on IL-1β inhibition” value (postsynaptic GABAARs) was “this effect could be blocked by IL-1ra”, the “effect on LTP (in words)” value (α5GABAARs [8]) was “This inhibition of LTP was abolished by incubating the slices with IL-1ra” and the “LTP, slope of fPSPs” value (α5GABAARs [8]; slices from LPS-treated WT mice incubated with IL-1ra 100 ng ml^−1 for 1 h, n=10) was 126.2%±3.9%. For the same compound, the “postsurgical memory deficits (in words)” value [9] was “no memory deficits were detected”, the “effect on the tonic current (in words)” value (α5GABAARs [10]) was “fully reversed the enhancement of the tonic current” and the “effect on the tonic current (in words)” value (α5GABAARs [2]) was “completely blocked by IL-1ra; also recorded: alone had no effect on the tonic or synaptic currents; also recorded: completely blocked both the increase in tonic current and the reduction of synaptic current by IL-1β”. For the same compound, the “effect on mIPSCs (in words)” value (synaptic GABAARs) was “this effect could be blocked by IL-1ra”.
In the case of IL-6: pro-inflammatory cytokine, the “amplitude of the tonic current” value (α5GABAARs [2]) is reported as 96.3%±6.0% and the “effect on the tonic current (in words)” value (α5GABAARs [2]) is reported as “did not modify the tonic conductance in hippocampal neurons”.
For TNF-α, the “amplitude of the tonic current” value (α5GABAARs [2]) was 104.1%±12.1% and the “effect on the tonic current (in words)” value (α5GABAARs [2]) was “did not modify the tonic conductance in hippocampal neurons”.
